Results taken from patent publication US20260200926A1, “TREM2 MODULATORS” (Muna Therapeutics ApS, priority 2022, published 2026).

Biological target: T1, Human TREM2 (Homo sapiens, UniProt Q9NZC2)
T1 construct: expressed in transfected cells
Experiment: Human TREM2 activity: cellular phosphorylation of Syk (AlphaLISA SureFire Ultra p-SYK) in HEK293/DAP12+TREM2 stable cell line
Assay type: cell-based
Details: for Emax: HEK293, maximal response relative to reference agonist example 1B (remaining examples), read-out: Emax; for EC50: phospho-Syk AlphaLISA signal, HEK293/DAP12+TREM2 cells, concentration giving 50% of maximal response, read-out: EC50
How it was run: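 HEK293 cells stably co-expressing human TREM2 and DAP12 were seeded at 10,000 cells/well and used 20–24 h later. Compounds were tested at 8 concentrations (top 100 μM, 1:6 steps, 0.5% DMSO) for 30 min at 37 °C. Syk phosphorylation at Tyr525/526 was read in lysates by AlphaLISA SureFire Ultra.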

T1 sequence (Q9NZC2 19-230): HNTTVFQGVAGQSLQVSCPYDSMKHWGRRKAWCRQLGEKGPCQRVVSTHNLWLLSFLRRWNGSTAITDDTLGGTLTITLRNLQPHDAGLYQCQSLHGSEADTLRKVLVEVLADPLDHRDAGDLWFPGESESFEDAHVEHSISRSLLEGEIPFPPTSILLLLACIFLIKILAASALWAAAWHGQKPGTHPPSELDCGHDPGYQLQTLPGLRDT
T1 sequence (O43914 22-113 partner): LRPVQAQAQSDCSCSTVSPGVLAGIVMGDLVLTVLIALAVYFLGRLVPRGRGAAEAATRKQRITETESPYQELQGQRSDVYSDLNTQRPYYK

| Emax [%] | EC50 [nM] | Structure (SMILES) |
| --- | --- | --- |
| 75 to 110 | 1 to 10 | Cc1cc([C@@H]2CN(c3cc4c(=O)n(C)c(C)nc4c(-c4ccc(F)cc4F)n3)CC(C)(C)O2)ccn1 (single isomer, unassigned) [Example 159A] |
| < 75 | 100 to 1000 | Cc1cc([C@H]2CN(c3cc4c(=O)n(C)c(C)nc4c(-c4ccc(F)cc4F)n3)CC(C)(C)O2)ccn1 (single isomer, unassigned) [Example 159B] |
| 75 to 110 | 1 to 10 | Cc1cc([C@@H]2CN(c3cc4c(=O)n(C)c(C)nc4c(-c4cc(F)c(F)cc4F)n3)CC(C)(C)O2)ccn1 (single isomer, unassigned) [Example 160A] |
| < 75 | 100 to 1000 | Cc1cc([C@H]2CN(c3cc4c(=O)n(C)c(C)nc4c(-c4cc(F)c(F)cc4F)n3)CC(C)(C)O2)ccn1 (single isomer, unassigned) [Example 160B] |
| < 75 | 100 to 1000 | Cc1cc([C@@H]2CN(c3cc4c(=O)n(C)c(C)nc4c(-c4ccc(C(F)(F)F)nc4)n3)CC(C)(C)O2)ccn1 (single isomer, unassigned) [Example 161A] |
| 75 to 110 | 1 to 10 | Cc1cc([C@H]2CN(c3cc4c(=O)n(C)c(C)nc4c(-c4ccc(C(F)(F)F)nc4)n3)CC(C)(C)O2)ccn1 (single isomer, unassigned) [Example 161B] |
| 75 to 110 | 1 to 10 | Cn1cc([C@@H]2CN(c3nc(-c4cc(F)c(F)cc4F)c4nc(C(F)(F)F)n(C)c(=O)c4n3)CC3(CC3)O2)cn1 (single isomer, unassigned) [Example 162A] |
| < 75 | 10 to 100 | Cn1cc([C@H]2CN(c3nc(-c4cc(F)c(F)cc4F)c4nc(C(F)(F)F)n(C)c(=O)c4n3)CC3(CC3)O2)cn1 (single isomer, unassigned) [Example 162B] |
| < 75 | 100 to 1000 | Cc1cc([C@@H]2CN(c3cc4c(=O)n(C)c(C)nc4c(-c4ccc(C(F)(F)F)cc4F)n3)CC(C)(C)O2)ccn1 (single isomer, unassigned) [Example 163A] |
| 75 to 110 | 1 to 10 | Cc1cc([C@H]2CN(c3cc4c(=O)n(C)c(C)nc4c(-c4ccc(C(F)(F)F)cc4F)n3)CC(C)(C)O2)ccn1 (single isomer, unassigned) [Example 163B] |
| 75 to 110 | 10 to 100 | Cc1cc([C@@H]2CN(c3nc(-c4ccc(C(F)(F)F)nc4)c4nc(C)n(C)c(=O)c4n3)CC(C)(C)O2)ccn1 (single isomer, unassigned) [Example 164A] |
| < 75 | 1 to 10 | Cc1cc([C@H]2CN(c3nc(-c4ccc(C(F)(F)F)nc4)c4nc(C)n(C)c(=O)c4n3)CC(C)(C)O2)ccn1 (single isomer, unassigned) [Example 164B] |
| 75 to 110 | 1 to 10 | Cn1cc([C@@H]2CN(c3nc(-c4ccc(F)cc4F)c4nc(C(F)(F)F)n(C)c(=O)c4n3)CC3(CC3)O2)cn1 (single isomer, unassigned) [Example 165A] |
| 75 to 110 | 10 to 100 | Cn1cc([C@H]2CN(c3nc(-c4ccc(F)cc4F)c4nc(C(F)(F)F)n(C)c(=O)c4n3)CC3(CC3)O2)cn1 (single isomer, unassigned) [Example 165B] |
| 75 to 110 | 1 to 10 | Cc1nc2c(-c3ccc(F)cc3F)nc(N3C[C@@H](c4cnn(C)c4)OC(F)(F)C3)cc2c(=O)n1C (single isomer, unassigned) [Example 166A] |
| < 75 | 10 to 100 | Cc1nc2c(-c3ccc(F)cc3F)nc(N3C[C@H](c4cnn(C)c4)OC(F)(F)C3)cc2c(=O)n1C (single isomer, unassigned) [Example 166B] |
| < 75 | 100 to 1000 | Cc1cc([C@@H]2C[C@H](c3cc4c(=O)n(C)c(C)nc4c(-c4ccc(C(F)(F)F)cc4F)n3)CCO2)ccn1 (single isomer, unassigned) [Example 168A] |
| 75 to 110 | 1 to 10 | Cc1cc([C@H]2C[C@@H](c3cc4c(=O)n(C)c(C)nc4c(-c4ccc(C(F)(F)F)cc4F)n3)CCO2)ccn1 (single isomer, unassigned) [Example 168B] |
| 75 to 110 | < 1 | Cc1cc([C@@H]2CN(c3nc(-c4ccc(F)cc4F)c4nc(C)n(C)c(=O)c4n3)CC(F)(F)O2)ccn1 (single isomer, unassigned) [Example 169A] |
| 75 to 110 | 10 to 100 | Cc1cc([C@H]2CN(c3nc(-c4ccc(F)cc4F)c4nc(C)n(C)c(=O)c4n3)CC(F)(F)O2)ccn1 (single isomer, unassigned) [Example 169B] |
| < 75 | 100 to 1000 | Cc1cc([C@@H]2CN(c3nc(-c4ccc(F)cc4F)c4nc(C)n(C)c(=O)c4n3)CC(C)(C)O2)ccn1 (single isomer, unassigned) [Example 170A] |
| 75 to 110 | 1 to 10 | Cc1cc([C@H]2CN(c3nc(-c4ccc(F)cc4F)c4nc(C)n(C)c(=O)c4n3)CC(C)(C)O2)ccn1 (single isomer, unassigned) [Example 170B] |

| Emax [%] | EC50 [nM] | Structure (SMILES) |
| --- | --- | --- |
| > 110 | 1 to 10 | Cc1cc([C@@H]2CN(c3cc4c(=O)n(C)c(C)nc4c(-c4ccc(F)cc4F)n3)CC(F)(F)O2)ccn1 (single isomer, unassigned) [Example 171A] |
| < 75 | 100 to 1000 | Cc1cc([C@H]2CN(c3cc4c(=O)n(C)c(C)nc4c(-c4ccc(F)cc4F)n3)CC(F)(F)O2)ccn1 (single isomer, unassigned) [Example 171B] |
| < 75 | 100 to 1000 | Cc1cc([C@@H]2CN(c3cc4c(=O)n(C)c(C)nc4c(-c4ccc(Cl)cc4F)n3)CC(C)(C)O2)ccn1 (single isomer, unassigned) [Example 172A] |
| 75 to 110 | 1 to 10 | Cc1cc([C@H]2CN(c3cc4c(=O)n(C)c(C)nc4c(-c4ccc(Cl)cc4F)n3)CC(C)(C)O2)ccn1 (single isomer, unassigned) [Example 172B] |
| < 75 | 10 to 100 | Cc1nc2c(-c3ccc(Cl)cc3F)nc(N3C[C@@H](c4cnn(C)c4)OC4(CC4)C3)c(F)c2c(=O)n1C (single isomer, unassigned) [Example 173A] |
| < 75 | 10 to 100 | Cc1nc2c(-c3ccc(Cl)cc3F)nc(N3C[C@H](c4cnn(C)c4)OC4(CC4)C3)c(F)c2c(=O)n1C (single isomer, unassigned) [Example 173B] |
| < 75 | 10 to 100 | Cc1cc([C@@H]2CN(c3nc(-c4ccc(F)cc4F)c4nc(C(F)(F)F)n(C)c(=O)c4c3F)CCO2)ccn1 (single isomer, unassigned) [Example 174A] |
| < 75 | 100 to 1000 | Cc1cc([C@H]2CN(c3nc(-c4ccc(F)cc4F)c4nc(C(F)(F)F)n(C)c(=O)c4c3F)CCO2)ccn1 (single isomer, unassigned) [Example 174B] |
| 75 to 110 | 1 to 10 | Cc1cc([C@@H]2CN(c3nc(-c4ccc(F)cc4F)c4nc(C)n(C)c(=O)c4n3)C[C@H](C)O2)ccn1 (single isomer, unassigned) [Example 175A] |
| 75 to 110 | 10 to 100 | Cc1cc([C@H]2CN(c3nc(-c4ccc(F)cc4F)c4nc(C)n(C)c(=O)c4n3)C[C@@H](C)O2)ccn1 (single isomer, unassigned) [Example 175B] |
| 75 to 110 | < 1 | Cc1cc([C@@H]2CN(c3nc(-c4ccc(Cl)cc4F)c4nc(C)n(C)c(=O)c4n3)C[C@H](C)O2)ccn1 (single isomer, unassigned) [Example 176A] |
| 75 to 110 | 1 to 10 | Cc1cc([C@H]2CN(c3nc(-c4ccc(Cl)cc4F)c4nc(C)n(C)c(=O)c4n3)C[C@@H](C)O2)ccn1 (single isomer, unassigned) [Example 176B] |
| < 75 | 10 to 100 | Cc1nc2c(-c3ccc(F)cc3F)nc(N3C[C@@H](c4cnn(C5CC5)c4)O[C@@H](C)C3)nc2c(=O)n1C (single isomer, unassigned) [Example 177A] |
| 75 to 110 | 1 to 10 | Cc1nc2c(-c3ccc(F)cc3F)nc(N3C[C@@H](C)O[C@@H](c4cnn(C5CC5)c4)C3)nc2c(=O)n1C (single isomer, unassigned) [Example 177B] |
| 75 to 110 | 1 to 10 | Cc1nc2c(-c3ccc(Cl)cc3F)nc(N3C[C@@H](c4cnn(C5CC5)c4)O[C@@H](C)C3)nc2c(=O)n1C (single isomer, unassigned) [Example 178A] |
| 75 to 110 | 1 to 10 | Cc1nc2c(-c3ccc(Cl)cc3F)nc(N3C[C@@H](C)O[C@@H](c4cnn(C5CC5)c4)C3)nc2c(=O)n1C (single isomer, unassigned) [Example 178B] |
| 75 to 110 | 1 to 10 | Cc1cc([C@@H]2CN(c3nc(-c4ccc(C(F)(F)F)cc4F)c4nc(C)n(C)c(=O)c4n3)C[C@H](C)O2)ccn1 (single isomer, unassigned) [Example 179A] |
| 75 to 110 | < 1 | Cc1cc([C@H]2CN(c3nc(-c4ccc(C(F)(F)F)cc4F)c4nc(C)n(C)c(=O)c4n3)C[C@@H](C)O2)ccn1 (single isomer, unassigned) [Example 179B] |
| < 75 | > 1000 | Cc1cc([C@@H]2CN(c3cc4c(=O)n(C)c(C)nc4c(-c4ccc(C(F)F)nc4)n3)CC(C)(C)O2)ccn1 (single isomer, unassigned) [Example 180A] |
| < 75 | 10 to 100 | Cc1cc([C@H]2CN(c3cc4c(=O)n(C)c(C)nc4c(-c4ccc(C(F)F)nc4)n3)CC(C)(C)O2)ccn1 (single isomer, unassigned) [Example 180B] |
| < 75 | 10 to 100 | Cc1cc([C@@H]2CN(c3cc4c(=O)n(C)c(C)nc4c(-c4ccc(C(F)F)nc4)n3)CC(F)(F)O2)ccn1 (single isomer, unassigned) [Example 181A] |
